# From patent US20120122951A1 (priority 2009, published 2012)
# How the values were obtained:
# [1] = tested on: Mouse B16 melanoma cell; assay: Quantification of the number of cells (alamarBlue), cell growth / cell toxicity; assay type: cell-based
# Experimental: (§1) Mouse B16 melanoma cell was used. The cells were inoculated at 1×10^5 cells/well to a 6-well plate, and cultured with using a commercially available medium (trade name: EAGLE MEM, manufactured by Nissui Pharmaceutical Co., Ltd.) supplemented with 10% fetal bovine serum. The cells were cultured at 37° C., 5% CO2 and under completely saturated water-vapor atmosphere.
# (§2) For determining the effect of hydroxyproline on cell growth and melanin content reduction, after culturing the cells for 24 hours, stock solutions of 4-trans-L-hydroxyproline, 4-trans-D-hydroxyproline, 4-cis-L-hydroxyproline or 4-cis-D-hydroxyproline were prepared and added in the same volume to the cells, further cultured for 3 days and used for the experiment. Meanwhile, as a control group, the same volume of water was added.
# 3 days after the addition of a solution of test compound, the medium was removed by suction. Eagle's-MEM containing the solution of 10% alamarBlue (trade name: BIOSOURCE, manufactured by Biosource International) was added and the reaction was allowed to occur at 37° C. Thirty minutes later, the fluorescence was measured with excitation wavelength of 544 nm and measurement wavelength of 590 nm. By having the obtained number as a relative value of the cell number, the ratio of number of cells (i.e. % number of cells) for a group added with the test compound compared to a group not added with the test compound (i.e. only the solvent was added) was calculated. Higher % number of cells indicates lower cell toxicity. When it is less than 80%, it was determined as “toxic.”
# (§3) The equal amounts of 4-trans-L-hydroxyproline and 4-cis-D-hydroxyproline were mixed to produce the mixture solution of 4-trans-L-hydroxyproline and 4-cis-D-hydroxyproline, which was then provided for the experiments. Cell culture and quantification and evaluation of number of the cells and melanin were carried out in the same manner as the Examples above.
# (§4) By using the mixture solution in which 4-trans-L-hydroxyproline and 4-cis-D-hydroxyproline were mixed at various ratio, test for determining cell growth and melanin content reduction was carried out. Cell culture and quantification and evaluation were carried out in the same manner as the Examples above.
# [2] = tested on: Mouse B16 melanoma cell; assay: Quantification of melanin (melanin content ratio, absorbance at 475 nm); assay type: cell-based; details: for effect on reducing melanin content (conclusion): 3.33 ppm up to 2690 ppm
# Experimental: as §1, §2
# The medium was removed by suction. After washing three times with the buffer (phosphate buffer solution 50 mM, pH 6.8), the cells were lysed by addition of 1 N NaOH, and the absorbance was measured at 475 nm. By having the obtained value as a relative value of the melanin content, the ratio of melanin content (%) for a group added with the test compound compared to a group not added with the test compound (i.e. only the solvent was added) was calculated. Lower ratio of melanin content means the higher inhibition effect on melanin production.
# By using the measured value of melanin content that was obtained according to the measurement method above, percentage ratio of the melanin content was calculated by dividing the melanin content in the cells added with 4-trans-L-hydroxyproline, 4-trans-D-hydroxyproline, 4-cis-L-hydroxyproline, or 4-cis-D-hydroxyproline by the melanin content in the cells for control experiment, and the resulting value was taken as a ratio of melanin content.
# as §3, §4
# [3] = tested on: Chinese hamster V79 cells; details: cited from earlier work
# [4] = FIG. 2, 100 ppm single compound, duplicate
SMILES,"number of cells when the control was represented as 100% ([1]; FIG. 1, 3.33 ppm, 3 days)","number of cells when the control was represented as 100% ([1]; FIG. 1, 11.1 ppm, 3 days)","number of cells when the control was represented as 100% ([1]; FIG. 1, 33.3 ppm, 3 days)","number of cells when the control was represented as 100% ([1]; FIG. 1, 333 ppm, 3 days)","concentration up to which the number of cells was not significantly different from the control (no effect on survival) ([1]; FIG. 1, 3 days)","number of cells when the control was represented as 100% ([1]; FIG. 3, 333 ppm, duplicate)",effect on reducing melanin content (conclusion) ([2]; FIG. 1),"melanin content ratio ([2]; FIG. 1, 3.33 ppm, 3 days)","melanin content ratio ([2]; FIG. 1, 11.1 ppm, 3 days)","melanin content ratio ([2]; FIG. 1, 33.3 ppm, 3 days)","melanin content ratio ([2]; FIG. 1, 333 ppm, 3 days)","melanin content ratio ([2]; FIG. 2, 33.3 ppm, duplicate)","melanin content ratio ([2]; FIG. 2, 50 ppm, duplicate)","melanin content ratio [2, 4]","melanin content ratio ([2]; FIG. 2, 333 ppm, duplicate)","melanin content ratio ([2]; FIG. 3, 333 ppm, duplicate)","number of cells when the control was represented as 100% ([1]; FIG. 2, 33.3 ppm, duplicate)","number of cells when the control was represented as 100% ([1]; FIG. 2, 50 ppm, duplicate)","number of cells when the control was represented as 100% [1, 4]","number of cells when the control was represented as 100% ([1]; FIG. 2, 333 ppm, duplicate)",also measured
O=C(O)[C@H]1C[C@@H](O)CN1 (stereo in doubt) [4-cis-D-hydroxyproline],97%,98%,101%,92%,≤ 333 ppm,88%,effect on reducing melanin content in a concentration-dependent manner,100%,98%,96%,32%,90%,85%,72%,32%,37%,,,,,"number of cells when the control was represented as 100% ([1]; FIG. 3, 33.3 ppm, duplicate): 93%; number of cells when the control was represented as 100% ([1]; FIG. 3, 50 ppm, duplicate): 92%; number of cells when the control was represented as 100% ([1]; FIG. 3, 100 ppm, duplicate): 91%; inhibition of melanin synthesis / melanin content (conclusion) ([2]; FIG. 2, 4-cis-D starting from 33.3 ppm, mixture with same amount of 4-cis-D): prominently inhibit melanin synthesis in a concentration-dependent manner; melanin content ratio ([2]; FIG. 3, 33.3 ppm, duplicate): 92%; melanin content ratio ([2]; FIG. 3, 50 ppm, duplicate): 84%; melanin content ratio ([2]; FIG. 3, 100 ppm, duplicate): 75%"
O=C(O)[C@@H]1C[C@H](O)CN1 (stereo in doubt) [4-cis-L-hydroxyproline],93%,92%,84%,,up to 33.3 ppm,,effect on reducing melanin content in a concentration-dependent manner,92%,83%,30%,,,,,,,97%,93%,95%,89%,
O=C(O)[C@H]1C[C@H](O)CN1 (stereo in doubt) [4-trans-D-hydroxyproline],98%,100%,101%,105%,,,no effect on reducing melanin content,97%,99%,99%,101%,,,,,,,,,,"number of cells when the control was represented as 100% ([1]; FIG. 1, 2690 ppm, 3 days): 109%; melanin content ratio ([2]; FIG. 1, 2690 ppm, 3 days): 110%"
O=C(O)[C@@H]1C[C@@H](O)CN1 (stereo in doubt) [4-trans-L-hydroxyproline],95%,103%,99%,101%,,100%,no effect on reducing melanin content,103%,108%,105%,104%,103%,104%,108%,112%,103%,95%,100%,98%,102%,"number of cells when the control was represented as 100% ([1]; FIG. 1, 2690 ppm, 3 days): 94%; number of cells when the control was represented as 100% ([1]; FIG. 3, 480 ppm, duplicate): 96%; number of cells when the control was represented as 100% ([1]; FIG. 3, 666 ppm, duplicate): 102%; number of cells when the control was represented as 100% ([1]; FIG. 3, 1332 ppm, duplicate): 99%; melanin content ratio ([2]; FIG. 1, 2690 ppm, 3 days): 107%; melanin content ratio ([2]; FIG. 3, 480 ppm, duplicate): 99%; melanin content ratio ([2]; FIG. 3, 666 ppm, duplicate): 107%; melanin content ratio ([2]; FIG. 3, 1332 ppm, duplicate): 102%"
"Oc1ccc(O)cc1 [Hydroquinone, hydroquinone]",,,,,,,,,,,,,,,,,,,,,mutagenic activity [3]: mutagenic activity
